Data reported in patent US20100298141A1, “SUBSTITUTED PYRIDINE N-OXIDE HERBICIDES” (E. I. DU PONT DE NEMOURS AND COMPANY, priority 2007, published 2010).

Legend:
blackgrass = experiment: Test C pre-/postemergence test; assay type: in vivo, Alopecurus myosuroides
From the text: (§1) Seeds of plant species selected from blackgrass (Alopecurus myosuroides), downy brome (Bromus tectorum), green foxtail (Setaria viridis), Italian ryegrass (Lolium multiflorum), wheat (Triticum aestivum), wild oat (Avena fatua), catchweed bedstraw (Galium aparine), Russian thistle (Salsola kali), […] (Cynodon dactylon), Surinam grass (Brachiaria decumbens), cocklebur (Xanthium strumarium), corn (Zea mays), crabgrass (Digitaria sanguinalis), woolly cupgrass (Eriochloa villosa), giant foxtail (Setaria faberii), Goosegrass (Eleusin indica), johnsongrass (Sorghum halepense), kochia (Kochia scoparia), lambsquarters (Chenopodium album), morningglory (Ipomoea coccinea), eastern black nightshade (Solanum ptycanthum), yellow nutsedge (Cyperus esculentus), pigweed (Amaranthus retroflexus), common ragweed (Ambrosia elation), soybean (Glycine max), common (oilseed) sunflower (Helianthus annuus), and velvetleaf (Abutilon theophrasti) were planted and treated preemergence with test chemicals formulated in a non-phytotoxic solvent mixture which included a surfactant. At the same time, plants selected from these crop and weed species and also winter barley (Hordeum vulgare), canarygrass (Phalaris minor), and chickweed (Stellaria media) were treated with postemergence applications of some of the test chemicals formulated in the same manner. Plants ranged in height from 2 to 18 cm (1- to 4-leaf stage) for postemergence treatments. […] At time of treatment, test pots were flooded to 3 cm above the soil surface, treated by application of test compounds directly to the paddy water, and then maintained at that water depth for the duration of the test. […] A dash (-) response means no test result.

green foxtail = experiment: Test C pre-/postemergence test; assay type: in vivo, Setaria viridis
From the text: as §1

corn = experiment: Test A pre-/postemergence greenhouse test; assay type: in vivo, Zea mays; conditions: for Corn plant response rating: 0 to 100 scale; for Plant response rating, Corn: 0 to 100 scale where 0 is no effect and 100 is complete control
How it was run: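 Pre: directed soil spray on seeded loam/sand. Post: foliar spray, plants 2–10 cm, 1–2 leaf stage, applied concurrently. Vehicle: non-phytotoxic solvent + surfactant. Greenhouse ~10 d; visual injury rating vs untreated controls.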

common ragweed = experiment: Test C pre-/postemergence test; assay type: in vivo, Ambrosia elation
From the text: as §1

[1] = 31 g ai/ha, Preemergence, scale 0 to 100
[2] = 62 g ai/ha, preemergence, scale 0 (no effect) to 100 (complete control)
[3] = preemergence, 125 g ai/ha, scale 0 (no effect) to 100 (complete control)
[4] = Postemergence, 125 g ai/ha, 0 is no effect, 100 is complete control
[5] = Postemergence, 500 g ai/ha, 0 is no effect, 100 is complete control
[6] = Preemergence, 125 g ai/ha, 0 no effect, 100 complete control
[7] = 62 g ai/ha, Preemergence, scale 0 to 100
[8] = Preemergence, 31 g ai/ha, scale 0 to 100 (0 no effect, 100 complete control)
[9] = 125 g ai/ha, preemergence, scale 0 (no effect) to 100 (complete control)
[10] = Postemergence, 62 g ai/ha, scale 0 to 100, 0 no effect, 100 complete control
[11] = Postemergence, 125 g ai/ha, scale 0 to 100, 0 no effect, 100 complete control
[12] = Postemergence, 250 g ai/ha, scale 0 to 100, 0 no effect, 100 complete control
[13] = preemergence, 250 g ai/ha, scale 0 (no effect) to 100 (complete control)
[14] = Preemergence, 500 g ai/ha, 0 no effect, 100 complete control

| Compound | Plant response rating (0 to 100), Blackgrass (blackgrass; Preemergence, 250 g ai/ha) | Blackgrass plant response rating (blackgrass; [3]) | Plant response rating (0 to 100), Foxtail, Green (green foxtail; Preemergence, 250 g ai/ha) | Corn plant response rating (corn; [4]) | Corn plant response rating (corn; [5]) | Corn plant response rating (corn; [6]) | Plant response rating, Corn (corn; Preemergence, 500 g ai/ha) | Blackgrass plant response rating (blackgrass; [7]) | Plant response rating, Blackgrass (blackgrass; [8]) | Foxtail, Green plant response rating (green foxtail; [7]) | Plant response rating, Foxtail, Green (green foxtail; [8]) | Ragweed plant response rating (common ragweed; [7]) | Plant response rating, Ragweed (common ragweed; [8]) | Blackgrass plant response rating (blackgrass; [9]) | Blackgrass plant response rating (blackgrass; [13]) | Foxtail, Green plant response rating (green foxtail; [9]) | Foxtail, Green plant response rating (green foxtail; [13]) | Plant response rating, Corn (corn; Postemergence, 125 g ai/ha) | Ragweed plant response rating (common ragweed; [9]) | Ragweed plant response rating (common ragweed; [13]) | other results |
| --- | --- | --- | --- | --- | --- | --- | --- | --- | --- | --- | --- | --- | --- | --- | --- | --- | --- | --- | --- | --- | --- |
| Cn1nc(C(F)(F)F)c(CS(=O)(=O)c2cccc[n+]2[O-])c1Cl [Compound 9] | 95 | 50 | 100 | 20 | 60 | 40 | 60 | – | – | – | – | – | – | – | – | – | – | – | – | – | Blackgrass plant response rating (blackgrass; [1]): 0; Blackgrass plant response rating (blackgrass; [2]): 50; Foxtail, Green plant response rating (green foxtail; [1]): 85; Foxtail, Green plant response rating (green foxtail; [2]): 100; Foxtail, Green plant response rating (green foxtail; [3]): 100; Ragweed plant response rating (common ragweed; [1]): 45; Plant response rating (0 to 100), Ragweed (common ragweed; Preemergence, 250 g ai/ha): 100; Ragweed plant response rating (common ragweed; [3]): 90 |
| Cn1nc(C(F)(F)F)c(C[S+]([O-])c2cc(C(F)(F)F)cc[n+]2[O-])c1Cl (racemic) [Compound 34] | 65 | 50 | 100 | 0 | 20 | 0 | 0 | 30 | 30 | 50 | 10 | 45 | 45 | – | – | – | – | – | – | – | – |
| CC(c1c(C(F)(F)F)nn(C)c1Cl)S(=O)(=O)c1cccc[n+]1[O-] (stereo not drawn) [Compound 10] | 100 | 98 | 100 | 40 | 60 | 0 | 50 | – | – | – | – | – | – | – | – | – | – | – | – | – | Blackgrass plant response rating (blackgrass; [1]): 0; Blackgrass plant response rating (blackgrass; [2]): 70; Foxtail, Green plant response rating (green foxtail; [1]): 70; Foxtail, Green plant response rating (green foxtail; [2]): 85; Foxtail, Green plant response rating (green foxtail; [3]): 100; Ragweed plant response rating (common ragweed; [1]): 60; Ragweed plant response rating (common ragweed; [2]): 80; Plant response rating (0 to 100), Ragweed (common ragweed; Preemergence, 250 g ai/ha): 100; Ragweed plant response rating (common ragweed; [3]): 100 |
| [O-][n+]1cc(Cl)ccc1[S+]([O-])Cc1c(C(F)(F)F)nn(CC(F)(F)F)c1Cl (stereo not drawn) [Compound 47] | – | – | – | – | 70 | 50 | 90 | 50 | 50 | 85 | 70 | 5 | 0 | 100 | 100 | 90 | 100 | 50 | 5 | 50 | Plant response rating (0 to 100), Blackgrass (blackgrass; Postemergence, 31 g ai/ha): 0; Plant response rating, Blackgrass (blackgrass; [10]): 20; Plant response rating, Blackgrass (blackgrass; [11]): 40; Plant response rating, Blackgrass (blackgrass; [12]): 70; Plant response rating (0 to 100), Foxtail, Green (green foxtail; Postemergence, 31 g ai/ha): 0; Plant response rating, Foxtail, Green (green foxtail; [10]): 0; Plant response rating, Foxtail, Green (green foxtail; [11]): 5; Plant response rating, Foxtail, Green (green foxtail; [12]): 80; Plant response rating (0 to 100), Ragweed (common ragweed; Postemergence, 31 g ai/ha): 0; Plant response rating (0 to 100), Ragweed (common ragweed; Postemergence, 62 g ai/ha): 0; Plant response rating, Ragweed (common ragweed; [11]): 0; Plant response rating, Ragweed (common ragweed; [12]): 0 |
| Cn1nc(C(F)(F)F)c(C[S+]([O-])c2cc(Br)cc[n+]2[O-])c1Cl (racemic) [Compound 35] | – | – | – | 0 | 30 | 0 | 0 | 0 | 0 | 80 | 0 | 0 | 0 | – | 50 | 100 | 100 | – | 50 | 85 | – |
| CC(c1c(C(F)(F)F)nn(C)c1OC(F)F)S(=O)(=O)c1cc(C(C)(C)C)cc[n+]1[O-] (racemic) [Compound 26] | 100 | 100 | 100 | 0 | 0 | 20 | 50 | 100 | 80 | 85 | 10 | 20 | 0 | – | – | – | – | – | – | – | – |
| Cn1nc(C(F)(F)F)c(C(Cl)S(=O)(=O)c2cccc[n+]2[O-])c1Cl (stereo not drawn) [Compound 12] | 100 | 98 | 100 | 0 | 0 | 0 | 30 | – | – | – | – | – | – | – | – | – | – | – | – | – | Blackgrass plant response rating (blackgrass; [1]): 0; Blackgrass plant response rating (blackgrass; [2]): 98; Foxtail, Green plant response rating (green foxtail; [1]): 100; Foxtail, Green plant response rating (green foxtail; [3]): 100; Ragweed plant response rating (common ragweed; [1]): 0; Ragweed plant response rating (common ragweed; [2]): 0; Plant response rating (0 to 100), Ragweed (common ragweed; Preemergence, 250 g ai/ha): 20 |
| CCc1cc[n+]([O-])c([S+]([O-])Cc2c(C(F)(F)F)nn(C)c2OC(F)F)c1 (stereo not drawn) [Compound 101] | – | – | – | – | 70 | 50 | – | 30 | 0 | 95 | 85 | 10 | 0 | 70 | 90 | 98 | 100 | 60 | 100 | 100 | Corn plant response rating (corn; [14]): 90 |
| Cn1nc(C(F)(F)F)c(C[S+]([O-])c2cccc[n+]2[O-])c1OCC(F)F (stereo not drawn) [Compound 75] | – | – | – | – | 70 | 0 | 70 | 100 | 60 | 98 | 80 | 80 | 0 | 100 | 100 | 98 | 100 | 50 | 85 | 100 | – |
| CCc1cc[n+]([O-])c(S(=O)(=O)Cc2c(C(F)(F)F)nn(C)c2OC(F)F)c1 [Compound 102] | – | – | – | – | 50 | 0 | – | 80 | 10 | 95 | 85 | 80 | 75 | 80 | – | 98 | 100 | 40 | 85 | 95 | Corn plant response rating (corn; [14]): 0 |
| Cn1nc(C(F)(F)F)c(C[S+]([O-])c2cc(Cl)cc[n+]2[O-])c1Cl (racemic) [Compound 39] | – | – | – | 30 | 50 | 30 | 50 | – | – | – | – | 0 | – | – | – | – | – | – | 90 | 90 | – |
